Laboratory results as given in patent US20250163104A1, “MACROCYCLIC IMMUNOMODULATORS” (priority 2021, published 2025).
Where a SMILES comes first, the peptide text is derived from it. Bridges are numbered along the chain shown (N, C = ends). [ ]: non-standard residue; d: D form. The star is where a group is joined. ξ: configuration not given here. Phe(4-COOH) = N[C@@H](Cc1ccc(C(=O)O)cc1)C(=O)O; Bip = N[C@@H](Cc1ccc(-c2ccccc2)cc1)C(=O)O; Phe(3-Me) = Cc1cccc(C[C@H](N)C(=O)O)c1; ξW = NC(Cc1c[nH]c2ccccc12)C(=O)O; 3Pal = N[C@@H](Cc1cccnc1)C(=O)O; 4Pal = N[C@@H](Cc1ccncc1)C(=O)O; Cit = NC(=O)NCCC[C@H](N)C(=O)O; Carboxymethyl = O=C(O)C*; Orn = NCCC[C@H](N)C(=O)O; Dab = NCC[C@H](N)C(=O)O; Dap = NC[C@H](N)C(=O)O

Molecular target: T1, human PD-1 / PD-L1-Ig binding on Jurkat cell line over-expressing human PD-1 (Jurkat-PD-1) (Homo sapiens, UniProt Q15116)
T1 construct: expressed in transfected cells; host or cells: Jurkat
T1 sequence (Q15116 25-288): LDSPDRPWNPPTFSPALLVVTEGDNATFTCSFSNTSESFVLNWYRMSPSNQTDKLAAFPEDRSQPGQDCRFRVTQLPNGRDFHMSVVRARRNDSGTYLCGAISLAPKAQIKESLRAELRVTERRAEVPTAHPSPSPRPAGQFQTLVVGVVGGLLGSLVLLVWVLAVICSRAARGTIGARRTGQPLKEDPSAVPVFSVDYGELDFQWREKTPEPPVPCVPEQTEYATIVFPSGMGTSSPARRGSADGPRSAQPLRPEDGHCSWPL
Assay: Jurkat-PD-1 Cell Binding High-Content Screening Assay (CBA)
Assay type: cell-based
Conditions: Jurkat HPD1_PDL1 IC50, Jurkat-PD-1 cells, PE-labeled PD-L1-Ig 20 nM final
In short: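 Compounds were preincubated with Jurkat-hPD-1 cells in DMEM plus 10% fetal calf serum for 2 h at 37° C. Phycoerythrin-labeled PD-L1-Ig (20 nM final) was then added for 1 hour. Cells were fixed in 4% paraformaldehyde with Hoechst 33342, and bound fluorescence was quantified by high-content imaging.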

Row | Compound | IC50 [nM]
1 | CC[C@H](C)[C@@H]1NC(=O)[C@H](Cc2ccc(-c3ccccc3)cc2)NC(=O)[C@H](C(C)C)NC(=O)[C@H](Cc2cccc(C)c2)NC(=O)[C@H](CC(=O)O)NC(=O)[C@H](Cc2ccc(OCC(=O)O)cc2)NC(=O)[C@H](Cc2cccnc2)NC(=O)CSC[C@@H](C(=O)N[C@@H](C)C(N)=O)NC(=O)[C@H]([C@@H](C)O)NC(=O)[C@H](C(C)C)NC(=O)[C@H](CC(C)C)NC(=O)[C@H](CCN)NC(=O)[C@@H](CC(C)C)NC(=O)[C@H](CCCN)NC1=O [Compound 1224] | 11.3

Same assay, conditions: Jurkat-PD-1 cells, PE-labeled PD-L1-Ig 20 nM final; read-out: Jurkat HPD1_PDL1 IC50

Row | Compound | IC50 [nM]
2 | CC[C@H](C)[C@@H]1NC(=O)[C@H](Cc2ccc(-c3ccccc3)cc2)NC(=O)[C@H](CC(C)C)NC(=O)C(Cc2c[nH]c3ccccc23)NC(=O)[C@H](CC(=O)O)NC(=O)[C@H](Cc2ccc(O)cc2)NC(=O)[C@H](Cc2ccccc2)NC(=O)CSC[C@@H](C(=O)N[C@@H](C)C(N)=O)NC(=O)[C@H](CO)NC(=O)[C@H](C(C)C)NC(=O)[C@H](CC(C)C)NC(=O)[C@H](CC(N)=O)NC(=O)[C@@H](CC(C)C)NC(=O)[C@H](CN)NC1=O (stereo partly drawn) [Compound 1216] ({CH2CO}-FYD[ξW]L[Bip]I[Dap][dL]NLVSCA-NH2; thioether N-14) | 22.2
3 | CC(C)C[C@@H]1NC(=O)C(Cc2c[nH]c3ccccc23)NC(=O)[C@H](CC(=O)O)NC(=O)[C@H](Cc2ccc(O)cc2)NC(=O)[C@H](Cc2ccccc2)NC(=O)CSC[C@@H](C(=O)N[C@@H](C)C(N)=O)NC(=O)[C@H](CO)NC(=O)[C@H](C(C)C)NC(=O)[C@H](CC(C)C)NC(=O)[C@H](CC(N)=O)NC(=O)[C@@H](CC(C)C)NC(=O)[C@H](CN)NC(=O)[C@H](CCCNC(N)=O)NC(=O)[C@H](Cc2ccc(-c3ccccc3)cc2)NC1=O (stereo partly drawn) [Compound 1217] ({CH2CO}-FYD[ξW]L[Bip][Cit][Dap][dL]NLVSCA-NH2; thioether N-14) | 25.4
4 | Cc1cccc(C[C@@H]2NC(=O)[C@H](CC(=O)O)NC(=O)[C@H](Cc3ccc(OCC(=O)O)cc3)NC(=O)[C@H](Cc3cccnc3)NC(=O)CSC[C@@H](C(=O)N[C@@H](C)C(N)=O)NC(=O)[C@H]([C@@H](C)O)NC(=O)[C@H](C(C)C)NC(=O)[C@H](CC(C)C)NC(=O)[C@H](CCN)NC(=O)[C@@H](CC(C)C)NC(=O)[C@H](CCCN)NC(=O)[C@H](C(C)C)NC(=O)[C@H](Cc3ccc(-c4ccccc4)cc3)NC(=O)[C@H](C(C)C)NC2=O)c1 [Compound 1218] ({CH2CO}-[3Pal]Y(Carboxymethyl)D[Phe(3-Me)]V[Bip]V[Orn][dL][Dab]LVTCA-NH2; thioether N-14) | 5.6
5 | Cc1cccc(C[C@@H]2NC(=O)[C@H](CC(=O)O)NC(=O)[C@H](Cc3ccc(C(=O)O)cc3)NC(=O)[C@H](CN)NC(=O)CSC[C@@H](C(=O)N[C@@H](C)C(N)=O)NC(=O)[C@H]([C@@H](C)O)NC(=O)[C@H](C(C)C)NC(=O)[C@H](CC(C)C)NC(=O)[C@H](CCN)NC(=O)[C@@H](CC(C)C)NC(=O)[C@H](CCCN)NC(=O)[C@H](C(C)C)NC(=O)[C@H](Cc3ccc(-c4ccccc4)cc3)NC(=O)[C@H](C(C)C)NC2=O)c1 [Compound 1219] ({CH2CO}-[Dap][Phe(4-COOH)]D[Phe(3-Me)]V[Bip]V[Orn][dL][Dab]LVTCA-NH2; thioether N-14) | 5.4
6 | Cc1cccc(C[C@@H]2NC(=O)[C@H](CC(=O)O)NC(=O)[C@H](Cc3ccc(OCC(=O)O)cc3)NC(=O)[C@H](Cc3ccc(OCC(=O)O)cc3)NC(=O)CSC[C@@H](C(=O)N[C@@H](C)C(N)=O)NC(=O)[C@H]([C@@H](C)O)NC(=O)[C@H](C(C)C)NC(=O)[C@H](CC(C)C)NC(=O)[C@H](CCN)NC(=O)[C@@H](CC(C)C)NC(=O)[C@H](CCCN)NC(=O)[C@H](C(C)C)NC(=O)[C@H](Cc3ccc(-c4ccccc4)cc3)NC(=O)[C@H](C(C)C)NC2=O)c1 [Compound 1220] ({CH2CO}-Y(Carboxymethyl)Y(Carboxymethyl)D[Phe(3-Me)]V[Bip]V[Orn][dL][Dab]LVTCA-NH2; thioether N-14) | 5.1
7 | Cc1cccc(C[C@@H]2NC(=O)[C@H](CC(=O)O)NC(=O)[C@H](Cc3ccc(C(=O)O)cc3)NC(=O)[C@H](Cc3ccc(OCC(=O)O)cc3)NC(=O)CSC[C@@H](C(=O)N[C@@H](C)C(N)=O)NC(=O)[C@H]([C@@H](C)O)NC(=O)[C@H](C(C)C)NC(=O)[C@H](CC(C)C)NC(=O)[C@H](CCN)NC(=O)[C@@H](CC(C)C)NC(=O)[C@H](CCCN)NC(=O)[C@H](C(C)C)NC(=O)[C@H](Cc3ccc(-c4ccccc4)cc3)NC(=O)[C@H](C(C)C)NC2=O)c1 [Compound 1221] ({CH2CO}-Y(Carboxymethyl)[Phe(4-COOH)]D[Phe(3-Me)]V[Bip]V[Orn][dL][Dab]LVTCA-NH2; thioether N-14) | 3
8 | Cc1cccc(C[C@@H]2NC(=O)[C@H](CC(=O)O)NC(=O)[C@H](Cc3ccncc3)NC(=O)[C@H](Cc3ccc(OCC(=O)O)cc3)NC(=O)CSC[C@@H](C(=O)N[C@@H](C)C(N)=O)NC(=O)[C@H]([C@@H](C)O)NC(=O)[C@H](C(C)C)NC(=O)[C@H](CC(C)C)NC(=O)[C@H](CCN)NC(=O)[C@@H](CC(C)C)NC(=O)[C@H](CCCN)NC(=O)[C@H](C(C)C)NC(=O)[C@H](Cc3ccc(-c4ccccc4)cc3)NC(=O)[C@H](C(C)C)NC2=O)c1 [Compound 1222] ({CH2CO}-Y(Carboxymethyl)[4Pal]D[Phe(3-Me)]V[Bip]V[Orn][dL][Dab]LVTCA-NH2; thioether N-14) | 14.7
9 | Cc1cccc(C[C@@H]2NC(=O)[C@H](CC(=O)O)NC(=O)[C@H](Cc3ccncc3)NC(=O)[C@H](CN)NC(=O)CSC[C@@H](C(=O)N[C@@H](C)C(N)=O)NC(=O)[C@H]([C@@H](C)O)NC(=O)[C@H](C(C)C)NC(=O)[C@H](CC(C)C)NC(=O)[C@H](CCN)NC(=O)[C@@H](CC(C)C)NC(=O)[C@H](CCCN)NC(=O)[C@H](C(C)C)NC(=O)[C@H](Cc3ccc(-c4ccccc4)cc3)NC(=O)[C@H](C(C)C)NC2=O)c1 [Compound 1223] ({CH2CO}-[Dap][4Pal]D[Phe(3-Me)]V[Bip]V[Orn][dL][Dab]LVTCA-NH2; thioether N-14) | 6.1
10 | Cc1cccc(C[C@@H]2NC(=O)[C@H](CC(=O)O)NC(=O)[C@H](Cc3ccc(OCC(=O)O)cc3)NC(=O)[C@H](Cc3cccnc3)NC(=O)CSC[C@@H](C(=O)N[C@@H](C)C(N)=O)NC(=O)[C@H]([C@@H](C)O)NC(=O)[C@H](C(C)C)NC(=O)[C@H](CC(C)C)NC(=O)[C@H](CCN)NC(=O)[C@@H](CC(C)C)NC(=O)[C@H](CCCN)NC(=O)[C@H](CCCNC(N)=O)NC(=O)[C@H](Cc3ccc(-c4ccccc4)cc3)NC(=O)[C@H](C(C)C)NC2=O)c1 [Compound 1225] ({CH2CO}-[3Pal]Y(Carboxymethyl)D[Phe(3-Me)]V[Bip][Cit][Orn][dL][Dab]LVTCA-NH2; thioether N-14) | 6.2
11 | CC(C)C[C@@H]1NC(=O)[C@H](Cc2c[nH]c3ccccc23)NC(=O)[C@H](CC(=O)O)NC(=O)[C@H](Cc2ccc(O)cc2)NC(=O)[C@H](Cc2ccccc2)NC(=O)CSC[C@@H](C(=O)N[C@@H](C)C(N)=O)NC(=O)[C@H](CO)NC(=O)[C@H](C(C)C)NC(=O)[C@H](CC(C)C)NC(=O)[C@H](CC(N)=O)NC(=O)[C@@H](CC(C)C)NC(=O)[C@H](CN)NC(=O)[C@H](CCC(=O)O)NC(=O)[C@H](Cc2ccc(-c3ccccc3)cc2)NC1=O [Compound 1226] ({CH2CO}-FYDWL[Bip]E[Dap][dL]NLVSCA-NH2; thioether N-14) | 32.2
